# Assays:
# Assay type in all cases: in vivo
# Conditions in all cases: scale 0 to 100
# [1] = test system: poinsettia, wild (wild poinsettia, Euphorbia heterophylla); experiment: Test E pre-/postemergence greenhouse herbicide test
# [2] = test system: pigweed (Amaranthus retroflexus); experiment: Test D pre-/postemergence controlled growth environment herbicide test
# Excerpt: (§1) Seeds of plant species selected from bluegrass (annual bluegrass, Poa annua), blackgrass (Alopecurus myosuroides), canarygrass (Phalaris minor), chickweed (common chickweed, Stellaria media), galium (catchweed bedstraw, Galium aparine), downy bromegrass (Bromus tectorum), field poppy (Papaver rhoeas), field violet (Viola arvensis), foxtail, green (green foxtail, Setaria viridis), deadnettle (henbit deadnettle, Lamium amplexicaule), ryegrass, Italian (Italian ryegrass, Lolium multiflorum), kochia (Kochia scoparia), lambsquarters (Chenopodium album), oilseed rape (Brassica napus), pigweed (Amaranthus retroflexus), chamomile (scentless chamomile, Matricaria inodora), Russian thistle (Salsola kali), speedwell (bird's-eye speedwell, Veronica persica), barley, spring (spring barley, Hordeum vulgare), wheat, spring (spring wheat, Triticum aestivum), buckwheat, wild (wild buckwheat, Polygonum convolvulus), mustard, wild (wild mustard, Sinapis arvensis), oat, wild (wild oat, Avena fatua), radish, wild (wild radish, Raphanus raphanistrum), windgrass (Apera spica-venti), barley, winter (winter barley, Hordeum vulgare), and wheat, winter (winter wheat, Triticum aestivum) were planted into a silt loam soil and treated preemergence with test chemicals formulated in a non-phytotoxic solvent mixture which included a surfactant.
# (§2) At the same time, these species were planted in pots containing Redi-Earth® planting medium (Scotts Company, 14111 Scottslawn Road, Marysville, Ohio 43041) comprising spaghnum peat moss, vermiculite, wetting agent and starter nutrients and treated with postemergence applications of the test chemicals formulated in the same manner. Plants ranged in height from 2 to 18 cm (1- to 4-leaf stage). Treated plants and controls were maintained in a controlled growth environment for 14 to 21 d after which time all species were compared to controls and visually evaluated. Plant response ratings, summarized in Table D, are based on a scale of 0 to 100 where 0 is no effect and 100 is complete control. A dash (-) response means no test result.
# [3] = test system: deadnettle (henbit deadnettle, Lamium amplexicaule); experiment: as above
# Excerpt: as §1, §2
# [4] = test system: downy bromegrass (Bromus tectorum); experiment: as above
# Excerpt: as §1, §2
# kochia (Kochia scoparia) = experiment: as above
# Excerpt: as §1, §2
# [5] = test system: buckwheat, wild (wild buckwheat, Polygonum convolvulus); experiment: as above
# Excerpt: as §1, §2
# [6] = test system: mustard, wild (wild mustard, Sinapis arvensis); experiment: as above
# Excerpt: as §1, §2
# [7] = test system: windgrass (Apera spica-venti); experiment: as above
# Excerpt: as §1, §2
# [8] = test system: galium (catchweed bedstraw, Galium aparine); experiment: as above
# Excerpt: as §1, §2
# [9] = test system: field poppy (Papaver rhoeas); experiment: as above
# Excerpt: as §1, §2
# [10] = test system: wheat, winter (winter wheat, Triticum aestivum); experiment: as above
# Excerpt: as §1, §2
smiles,measurement,setting,value
"COc1cc(=O)n(-c2ccc(F)cc2)nc1Cc1ccnc(C(F)(F)F)c1 [Compound 17, 2-(4-fluorophenyl)-5-methoxy-6-[[2-(trifluoromethyl)-4-pyridinyl]methyl]-3 (2H)-pyridazinone]","Plant response rating: Poinsettia, Wild","[1]; Postemergence, 16 g ai/ha",20
same,"Plant response rating: Poinsettia, Wild","[1]; Postemergence, 31 g ai/ha",30
same,"Plant response rating: Poinsettia, Wild","[1]; Postemergence, 62 g ai/ha",40
same,"Plant response rating: Poinsettia, Wild","[1]; Postemergence, 125 g ai/ha",40
same,"Plant response rating: Poinsettia, Wild","[1]; Postemergence, 250 g ai/ha",50
same,"Plant response rating: Poinsettia, Wild","[1]; Preemergence, 16 g ai/ha",20
same,"Plant response rating: Poinsettia, Wild","[1]; Preemergence, 31 g ai/ha",20
same,"Plant response rating: Poinsettia, Wild","[1]; Preemergence, 62 g ai/ha",30
same,"Plant response rating: Poinsettia, Wild","[1]; Preemergence, 125 g ai/ha",40
same,"Plant response rating: Poinsettia, Wild","[1]; Preemergence, 250 g ai/ha",100
same,Plant response rating,"[2]; Postemergence, 31 g ai/ha",20
same,Plant response rating,"[2]; Postemergence, 62 g ai/ha",30
same,Plant response rating,"[2]; Postemergence, 125 g ai/ha",30
same,Plant response rating,"[2]; Postemergence, 250 g ai/ha",70
same,Plant response rating,"[2]; Postemergence, 500 g ai/ha",95
same,Plant response rating,"[2]; Preemergence, 31 g ai/ha",10
same,Plant response rating,"[2]; Preemergence, 62 g ai/ha",100
same,Plant response rating,"[2]; Preemergence, 125 g ai/ha",100
same,Plant response rating,"[2]; Preemergence, 250 g ai/ha",100
same,Plant response rating,"[2]; Preemergence, 500 g ai/ha",100
same,Plant response rating,"[3]; Postemergence, 31 g ai/ha",50
same,Plant response rating,"[3]; Postemergence, 62 g ai/ha",50
same,Plant response rating,"[3]; Postemergence, 125 g ai/ha",65
same,Plant response rating,"[3]; Postemergence, 250 g ai/ha",98
same,Plant response rating,"[3]; Postemergence, 500 g ai/ha",100
same,Plant response rating,"[3]; Preemergence, 31 g ai/ha",100
same,Plant response rating,"[3]; Preemergence, 62 g ai/ha",100
same,Plant response rating,"[3]; Preemergence, 125 g ai/ha",100
same,Plant response rating,"[3]; Preemergence, 250 g ai/ha",100
same,Plant response rating,"[3]; Preemergence, 500 g ai/ha",100
same,Plant response rating,"[4]; Postemergence, 31 g ai/ha",10
same,Plant response rating,"[4]; Postemergence, 62 g ai/ha",10
same,Plant response rating,"[4]; Postemergence, 125 g ai/ha",15
same,Plant response rating,"[4]; Postemergence, 250 g ai/ha",25
same,Plant response rating,"[4]; Postemergence, 500 g ai/ha",30
same,Plant response rating,"[4]; Preemergence, 31 g ai/ha",10
same,Plant response rating,"[4]; Preemergence, 62 g ai/ha",10
same,Plant response rating,"[4]; Preemergence, 125 g ai/ha",15
same,Plant response rating,"[4]; Preemergence, 250 g ai/ha",30
same,Plant response rating,"[4]; Preemergence, 500 g ai/ha",50
same,Plant response rating,"kochia (Kochia scoparia); Postemergence, 31 g ai/ha",25
same,Plant response rating,"kochia (Kochia scoparia); Postemergence, 62 g ai/ha",60
same,Plant response rating,"kochia (Kochia scoparia); Postemergence, 125 g ai/ha",70
same,Plant response rating,"kochia (Kochia scoparia); Postemergence, 250 g ai/ha",80
same,Plant response rating,"kochia (Kochia scoparia); Postemergence, 500 g ai/ha",90
same,Plant response rating,"kochia (Kochia scoparia); Preemergence, 31 g ai/ha",100
same,Plant response rating,"kochia (Kochia scoparia); Preemergence, 62 g ai/ha",100
same,Plant response rating,"kochia (Kochia scoparia); Preemergence, 125 g ai/ha",100
same,Plant response rating,"kochia (Kochia scoparia); Preemergence, 250 g ai/ha",100
same,Plant response rating,"kochia (Kochia scoparia); Preemergence, 500 g ai/ha",100
same,Plant response rating,"[5]; Postemergence, 31 g ai/ha",10
same,Plant response rating,"[5]; Postemergence, 62 g ai/ha",10
same,Plant response rating,"[5]; Postemergence, 125 g ai/ha",40
same,Plant response rating,"[5]; Postemergence, 250 g ai/ha",75
same,Plant response rating,"[5]; Postemergence, 500 g ai/ha",100
same,Plant response rating,"[5]; Preemergence, 31 g ai/ha",0
same,Plant response rating,"[5]; Preemergence, 62 g ai/ha",10
same,Plant response rating,"[5]; Preemergence, 125 g ai/ha",30
same,Plant response rating,"[5]; Preemergence, 250 g ai/ha",100
same,Plant response rating,"[5]; Preemergence, 500 g ai/ha",100
same,Plant response rating,"[6]; Postemergence, 31 g ai/ha",20
same,Plant response rating,"[6]; Postemergence, 62 g ai/ha",50
same,Plant response rating,"[6]; Postemergence, 125 g ai/ha",80
same,Plant response rating,"[6]; Postemergence, 250 g ai/ha",100
same,Plant response rating,"[6]; Postemergence, 500 g ai/ha",100
same,Plant response rating,"[6]; Preemergence, 31 g ai/ha",100
same,Plant response rating,"[6]; Preemergence, 62 g ai/ha",100
same,Plant response rating,"[6]; Preemergence, 125 g ai/ha",100
same,Plant response rating,"[6]; Preemergence, 250 g ai/ha",100
same,Plant response rating,"[6]; Preemergence, 500 g ai/ha",100
same,Plant response rating,"[7]; Postemergence, 31 g ai/ha",0
same,Plant response rating,"[7]; Postemergence, 62 g ai/ha",5
same,Plant response rating,"[7]; Postemergence, 125 g ai/ha",5
same,Plant response rating,"[7]; Postemergence, 250 g ai/ha",10
same,Plant response rating,"[7]; Postemergence, 500 g ai/ha",25
same,Plant response rating,"[7]; Preemergence, 31 g ai/ha",80
same,Plant response rating,"[7]; Preemergence, 62 g ai/ha",80
same,Plant response rating,"[7]; Preemergence, 125 g ai/ha",100
same,Plant response rating,"[7]; Preemergence, 250 g ai/ha",100
same,Plant response rating,"[7]; Preemergence, 500 g ai/ha",100
same,Plant response rating,"[8]; Postemergence, 31 g ai/ha",50
same,Plant response rating,"[8]; Postemergence, 62 g ai/ha",70
same,Plant response rating,"[8]; Postemergence, 125 g ai/ha",90
same,Plant response rating,"[8]; Postemergence, 250 g ai/ha",98
same,Plant response rating,"[8]; Postemergence, 500 g ai/ha",100
same,Plant response rating,"[8]; Preemergence, 31 g ai/ha",5
same,Plant response rating,"[8]; Preemergence, 62 g ai/ha",5
same,Plant response rating,"[8]; Preemergence, 125 g ai/ha",20
same,Plant response rating,"[8]; Preemergence, 250 g ai/ha",100
same,Plant response rating,"[8]; Preemergence, 500 g ai/ha",100
same,Plant response rating,"[9]; Postemergence, 31 g ai/ha",50
same,Plant response rating,"[9]; Postemergence, 62 g ai/ha",75
same,Plant response rating,"[9]; Postemergence, 125 g ai/ha",75
same,Plant response rating,"[9]; Postemergence, 250 g ai/ha",90
same,Plant response rating,"[9]; Postemergence, 500 g ai/ha",100
same,Plant response rating,"[9]; Preemergence, 31 g ai/ha",100
same,Plant response rating,"[9]; Preemergence, 62 g ai/ha",100
same,Plant response rating,"[9]; Preemergence, 125 g ai/ha",100
same,Plant response rating,"[9]; Preemergence, 250 g ai/ha",100
same,Plant response rating,"[9]; Preemergence, 500 g ai/ha",100
same,Plant response rating,"[10]; Postemergence, 31 g ai/ha",0
same,Plant response rating,"[10]; Postemergence, 62 g ai/ha",5
same,Plant response rating,"[10]; Postemergence, 125 g ai/ha",10
same,Plant response rating,"[10]; Postemergence, 250 g ai/ha",10
same,Plant response rating,"[10]; Postemergence, 500 g ai/ha",20
same,Plant response rating,"[10]; Preemergence, 31 g ai/ha",0
same,Plant response rating,"[10]; Preemergence, 62 g ai/ha",0
same,Plant response rating,"[10]; Preemergence, 125 g ai/ha",0
same,Plant response rating,"[10]; Preemergence, 250 g ai/ha",30
same,Plant response rating,"[10]; Preemergence, 500 g ai/ha",90
